Where “and” joins values, the source holds several entries; their conditions need not be identical. Equal values may be shown once. Inconclusive results and toxic doses are left out. The calls were made as follows: active = survival T/C of 150% or more; inactive = T/C below 125% in these data.
Tested on: CD2F1 mice, L1210 leukemia ip, survival T/C
Test: NCI In Vivo Anticancer Drug Screen. Data for tumor model L1210 Leukemia (intraperitoneal) in CD2F1 (CDF1) mice
Conditions: endpoint: mean survival time, higher = longer survival
In short: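 Vehicle-treated tumor-bearing mice served as controls (C) for compound-treated mice (T). Reported figure is T divided by C.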

[1] = dose: 100.0 mg/kg/injection, schedule: Q01DX001 (ip), vehicle: saline
[2] = dose: 200.0 mg/kg/injection, schedule: Q01DX001 (ip), vehicle: saline
[3] = dose: 400.0 mg/kg/injection, schedule: Q01DX001 (ip), vehicle: saline
[4] = dose: 12.5 mg/kg/injection, schedule: Q01DX009 (ip), vehicle: saline with Tween-80
[5] = dose: 25.0 mg/kg/injection, schedule: Q01DX009 (ip), vehicle: saline with Tween-80
[6] = dose: 100.0 mg/kg/injection, schedule: Q04DX002 (ip), vehicle: saline with Tween-80
[7] = dose: 100.0 mg/kg/injection, schedule: Q01DX009 (ip), vehicle: saline with Tween-80
[8] = dose: 200.0 mg/kg/injection, schedule: Q01DX009 (ip), vehicle: saline with Tween-80
[9] = dose: 400.0 mg/kg/injection, schedule: Q01DX009 (ip), vehicle: saline with Tween-80
[10] = dose: 50.0 mg/kg/injection, schedule: Q01DX009 (ip), vehicle: saline with Tween-80
[11] = dose: 100.0 mg/kg/injection, schedule: Q04DX003 (ip), vehicle: saline with Tween-80
[12] = dose: 200.0 mg/kg/injection, schedule: Q04DX003 (ip), vehicle: saline with Tween-80
[13] = dose: 400.0 mg/kg/injection, schedule: Q04DX003 (ip), vehicle: saline with Tween-80
[14] = dose: 25.0 mg/kg/injection, schedule: Q04DX002 (ip), vehicle: saline with Tween-80
[15] = dose: 50.0 mg/kg/injection, schedule: Q04DX002 (ip), vehicle: saline with Tween-80

Measured: T/C

CCOC(=O)C(Cc1ccccc1)P(=O)(OCC)OCC (stereo not drawn)
inactive: [1] 108 % of control | [2] 108 % of control | [3] 100 % of control

CCCCNCCC(SSSC(CCNCCCC)c1ccc(Cl)cc1)c1ccc(Cl)cc1 (stereo not drawn)
inactive: dose: 6.25 mg/kg/injection, schedule: Q01DX009 (ip), vehicle: saline with Tween-80 101 % of control | [4] 95 % of control | [5] 95 % of control

Nc1nc(=O)n(CCCOc2ccccc2NC(=O)Nc2cccc(S(=O)(=O)F)c2)cc1-c1ccc(Cl)c(Cl)c1
inactive: dose: 75.0 mg/kg/injection, schedule: Q01DX001 (ip), vehicle: saline with Tween-80 95 % of control | dose: 150.0 mg/kg/injection, schedule: Q01DX001 (ip), vehicle: saline with Tween-80 95 % of control | dose: 300.0 mg/kg/injection, schedule: Q01DX001 (ip), vehicle: saline with Tween-80 101 % of control

CCCCCCCCCCCCCCOc1ccccc1Cl
inactive: [6] 101 % of control | dose: 200.0 mg/kg/injection, schedule: Q04DX002 (ip), vehicle: saline with Tween-80 101 % of control | dose: 400.0 mg/kg/injection, schedule: Q04DX002 (ip), vehicle: saline with Tween-80 90 % of control

O=C(c1ccccc1)c1cccc(C(Br)Br)c1
inactive: [7] 95 % of control | [8] 93 % of control | [9] 101 % of control

O=c1ccccn1CCc1ccccc1
inactive: [4] 101 % of control | [5] 98 % of control | [10] 101 % of control

NC(=O)N/N=C/c1ccccc1N
inactive: [11] 97 % of control | [12] 108 % of control | [13] 98 % of control

Cc1ccc(NC(=O)N2CCN(C)CC2)cc1[N+](=O)[O-]
inactive: [10] 94 % of control | [7] 90 % of control | [8] 94 % of control

CCN1/C(=C/c2ccc3ccccc3[n+]2CC)C=Cc2ccccc21
inactive: dose: 0.25 mg/kg/injection, schedule: Q01DX001 (ip), vehicle: other 95 % of control | dose: 0.5 mg/kg/injection, schedule: Q01DX001 (ip), vehicle: other 97 % of control | dose: 1.0 mg/kg/injection, schedule: Q01DX001 (ip), vehicle: other 95 % of control

Cc1ccc(CNc2ccccc2)cc1
inactive: dose: 12.5 mg/kg/injection, schedule: Q01DX009 (ip), vehicle: other 103 % of control | dose: 25.0 mg/kg/injection, schedule: Q01DX009 (ip), vehicle: other 108 % of control | dose: 50.0 mg/kg/injection, schedule: Q01DX009 (ip), vehicle: other 96 % of control | dose: 100.0 mg/kg/injection, schedule: Q04DX003 (ip), vehicle: other 97 % of control | dose: 200.0 mg/kg/injection, schedule: Q04DX003 (ip), vehicle: other 89 % of control and 102 % of control | dose: 400.0 mg/kg/injection, schedule: Q04DX003 (ip), vehicle: other 88 % of control and 96 % of control

O=C1C=C/C(=N\N=C2/C=CC(=O)O2)O1
inactive: [14] 100 % of control | [15] 91 % of control

O=[N+]([O-])c1ccc(S(=O)Cc2ccccc2)c([N+](=O)[O-])c1 (stereo not drawn)
inactive: dose: 75.0 mg/kg/injection, schedule: Q01DX001 (ip), vehicle: other 100 % of control

CC(=O)c1cc(-c2ccc(Cl)cc2)nc2c(Cl)cc(Cl)cc12
inactive: [1] 89 % of control | [2] 87 % of control | [3] 91 % of control

CC(Oc1ccccc1)C(=O)c1ccccc1 (stereo not drawn)
inactive: [7] 93 % of control | [11] 97 % of control | [8] 93 % of control | [12] 100 % of control | [9] 96 % of control | [13] 90 % of control

CC1CCCN(CCSSCCN2CCCC(C)C2)C1 (stereo not drawn)
inactive: [4] 104 % of control | dose: 12.5 mg/kg/injection, schedule: Q04DX003 (ip), vehicle: saline sonified 97 % of control | [5] 96 % of control | dose: 25.0 mg/kg/injection, schedule: Q04DX003 (ip), vehicle: saline sonified 98 % of control | [10] 95 % of control | dose: 50.0 mg/kg/injection, schedule: Q04DX003 (ip), vehicle: saline sonified 103 % of control

NC(=O)N/N=C1/CCCC2CCCCC12 (stereo not drawn)
inactive: dose: 150.0 mg/kg/injection, schedule: Q04DX003 (ip), vehicle: saline with Tween-80 93 % of control | dose: 300.0 mg/kg/injection, schedule: Q04DX003 (ip), vehicle: saline with Tween-80 89 % of control

c1ccc(NCc2nc3ccccc3[nH]2)cc1
inactive: dose: 12.5 mg/kg/injection, schedule: Q01DX005 (ip), vehicle: water 101 % of control | dose: 25.0 mg/kg/injection, schedule: Q01DX005 (ip), vehicle: water 102 % of control

Cc1ccc(C2(SCC(N)C(=O)O)c3ccccc3-c3ccccc32)cc1 (stereo not drawn)
inactive: dose: 25.0 mg/kg/injection, schedule: Q01DX009 (ip), vehicle: saline 95 % of control | dose: 50.0 mg/kg/injection, schedule: Q01DX009 (ip), vehicle: saline 95 % of control | dose: 100.0 mg/kg/injection, schedule: Q01DX009 (ip), vehicle: saline 97 % of control | dose: 200.0 mg/kg/injection, schedule: Q01DX009 (ip), vehicle: saline 107 % of control

C=CCN1C(=O)C=CC1=O
inactive: [14] 95 % of control | [15] 91 % of control | [6] 88 % of control

O=C(c1ccccc1)c1c(-c2ccccc2)c(-c2ccccc2)c(-c2ccccc2)c(-c2ccccc2)c1-c1ccccc1
inactive: [11] 89 % of control | [12] 90 % of control | [13] 90 % of control

c1ccc2cc3nc4cc5ccccc5cc4nc3cc2c1
inactive: [11] 95 % of control | [12] 103 % of control | [13] 91 % of control

c1cc(C2CCOCC2)ccn1
inactive: [10] 109 % of control | dose: 100.0 mg/kg/injection, schedule: Q04DX003 (ip), vehicle: saline 92 % of control | dose: 200.0 mg/kg/injection, schedule: Q04DX003 (ip), vehicle: saline 90 % of control

C=CCCCCCCCCC(=O)NCCCN1CCOCC1
inactive: dose: 100.0 mg/kg/injection, schedule: Q01DX001 (ip), vehicle: saline with Tween-80 91 % of control | dose: 200.0 mg/kg/injection, schedule: Q01DX001 (ip), vehicle: saline with Tween-80 86 % of control

C1CC[N-]CC1.CC(=N\O)/C(C)=N/O.CC(=N\O)/C(C)=N/O.[CH2-]CCN1CCOCC1.[Co+2]
inactive: [5] 105 % of control | dose: 25.0 mg/kg/injection, schedule: Q04DX003 (ip), vehicle: saline with Tween-80 103 % of control | [10] 105 % of control | dose: 50.0 mg/kg/injection, schedule: Q04DX003 (ip), vehicle: saline with Tween-80 106 % of control | [11] 112 % of control

Cc1cccc(Cl)c1NC(=O)Nc1cc(Cl)ccc1Oc1c(Cl)cc(Cl)cc1S(=O)(=O)O
inactive: [7] 90 % of control | [8] 90 % of control

CC(=Nc1ccccc1)C1=C(O)C(Cc2ccc(F)cc2)NC1=O (stereo not drawn)
inactive: dose: 12.5 mg/kg/injection, schedule: Q04DX002 (ip), vehicle: saline with Tween-80 103 % of control | [14] 100 % of control | [15] 100 % of control

— PubChem BioAssay AID256 (DTP/NCI, 2004)
